In patent US11696937B2, “Glycopeptide compounds having activity of resisting drug-resistant bacteria, and preparation method and application thereof” (priority 2018, dated 2023):
≈ marks a conversion by molar mass, not a printed value.

Legend:
[1] = system: wild AB zebrafish; assay: Zebrafish toxicity test; type: in vivo; conditions: intravenous injection, 72 hours of treatment, samples in phosphate form
Experimental: A zebrafish toxicity test of the compounds in Table 1 is also tested. Randomly select wild AB zebrafish in a six-well plate, and inject each test sample at a dose of 50, 100, 150, 200, and 250 ng/tail intravenously. At the same time, a normal control group and a solvent control group (aqueous phosphoric acid) are set; During this experiment, the death of zebrafish is observed and recorded every day and the dead fish are removed. After 72 hours of treatment, the death of zebrafish is counted. Calculate the LD50 of each test product to zebrafish.
All samples are tested for zebrafish toxicity in phosphate form.

[2] = system: ATCC43300 (MRSA); assay: In vitro antibacterial activity (MIC) against MRSA; type: cell-based, Methicillin-resistant Staphylococcus aureus; conditions: MRSA strain ATCC43300; method of Pharmacopoeia of the People's Republic of China (2015 edition)
Experimental: (§1) An antibacterial activity of the compounds in Table 1 is determined in vitro, and a minimum inhibitory concentration (MIC) is read. The determination method refers to the method of the Pharmacopoeia of the People's Republic of China (2015 edition). The MRSA detection strain is purchased from ATCC, and the VRE detection strain is from the clinically isolated drug-resistant strain 07-W3-45 from Shanghai Huashan Hospital. Known antibiotic oritavancin (phosphate) is used for a reference drug.

[3] = system: Clinical isolates 07-W3-45 (VRE); assay: In vitro antibacterial activity (MIC) against VRE; type: cell-based, Vancomycin-resistant Enterococcus; conditions: clinically isolated drug-resistant strain 07-W3-45 from Shanghai Huashan Hospital
Experimental: as §1

SMILES	Zebrafish LD50 [1]	MIC ATCC43300 (MRSA) [2]	MIC Clinical isolates 07-W3-45 (VRE) [3]
CNC(CC(C)C)C(=O)NC1C(=O)NC(CC(N)=O)C(=O)NC2C(=O)NC3C(=O)NC(C(=O)NC(C(=O)O)c4cc(O)cc(O)c4-c4cc3ccc4O)C(OC3CC(C)(N)C(O)C(C)O3)c3ccc(c(Cl)c3)Oc3cc2cc(c3OC2OC(CO)C(O)C(O)C2OC2CC(C)(NCc3ccc(OCc4ccccc4)cc3)C(O)C(C)O2)Oc2ccc(cc2Cl)C1O (stereo not drawn) [Compound 1]	139 ng/tail	0.5 µg/mL (≈ 0.28 µM)	2 µg/mL (≈ 1.12 µM)
CNC(CC(C)C)C(=O)NC1C(=O)NC(CC(N)=O)C(=O)NC2C(=O)NC3C(=O)NC(C(=O)NC(C(=O)O)c4cc(O)cc(O)c4-c4cc3ccc4O)C(OC3CC(C)(N)C(O)C(C)O3)c3ccc(c(Cl)c3)Oc3cc2cc(c3OC2OC(CO)C(O)C(O)C2OC2CC(C)(NCc3ccc(OCCc4ccccc4)cc3)C(O)C(C)O2)Oc2ccc(cc2Cl)C1O (stereo not drawn) [Compound 2]	163 ng/tail	0.5 µg/mL (≈ 0.277 µM)	2 µg/mL (≈ 1.11 µM)
CNC(CC(C)C)C(=O)NC1C(=O)NC(CC(N)=O)C(=O)NC2C(=O)NC3C(=O)NC(C(=O)NC(C(=O)O)c4cc(O)cc(O)c4-c4cc3ccc4O)C(OC3CC(C)(N)C(O)C(C)O3)c3ccc(c(Cl)c3)Oc3cc2cc(c3OC2OC(CO)C(O)C(O)C2OC2CC(C)(NCc3ccc(OCCCc4ccccc4)cc3)C(O)C(C)O2)Oc2ccc(cc2Cl)C1O (stereo not drawn) [Compound 3]	123 ng/tail	0.25 µg/mL (≈ 0.138 µM)	1 µg/mL (≈ 0.55 µM)
CNC(CC(C)C)C(=O)NC1C(=O)NC(CC(N)=O)C(=O)NC2C(=O)NC3C(=O)NC(C(=O)NC(C(=O)O)c4cc(O)cc(O)c4-c4cc3ccc4O)C(OC3CC(C)(N)C(O)C(C)O3)c3ccc(c(Cl)c3)Oc3cc2cc(c3OC2OC(CO)C(O)C(O)C2OC2CC(C)(NCc3ccc(OCc4ccc(C)cc4)cc3)C(O)C(C)O2)Oc2ccc(cc2Cl)C1O (stereo not drawn) [Compound 4]	101 ng/tail	0.5 µg/mL (≈ 0.277 µM)	2 µg/mL (≈ 1.11 µM)
CNC(CC(C)C)C(=O)NC1C(=O)NC(CC(N)=O)C(=O)NC2C(=O)NC3C(=O)NC(C(=O)NC(C(=O)O)c4cc(O)cc(O)c4-c4cc3ccc4O)C(OC3CC(C)(N)C(O)C(C)O3)c3ccc(c(Cl)c3)Oc3cc2cc(c3OC2OC(CO)C(O)C(O)C2OC2CC(C)(NCc3ccc(OCc4ccc(Cl)cc4)cc3)C(O)C(C)O2)Oc2ccc(cc2Cl)C1O (stereo not drawn) [Compound 5]	180 ng/tail	0.5 µg/mL (≈ 0.274 µM)	2 µg/mL (≈ 1.1 µM)
CNC(CC(C)C)C(=O)NC1C(=O)NC(CC(N)=O)C(=O)NC2C(=O)NC3C(=O)NC(C(=O)NC(C(=O)O)c4cc(O)cc(O)c4-c4cc3ccc4O)C(OC3CC(C)(N)C(O)C(C)O3)c3ccc(c(Cl)c3)Oc3cc2cc(c3OC2OC(CO)C(O)C(O)C2OC2CC(C)(NCc3ccc(OCCc4ccc(C)cc4)cc3)C(O)C(C)O2)Oc2ccc(cc2Cl)C1O (stereo not drawn) [Compound 6]	121 ng/tail	0.25 µg/mL (≈ 0.138 µM)	8 µg/mL (≈ 4.4 µM)
CNC(CC(C)C)C(=O)NC1C(=O)NC(CC(N)=O)C(=O)NC2C(=O)NC3C(=O)NC(C(=O)NC(C(=O)O)c4cc(O)cc(O)c4-c4cc3ccc4O)C(OC3CC(C)(N)C(O)C(C)O3)c3ccc(c(Cl)c3)Oc3cc2cc(c3OC2OC(CO)C(O)C(O)C2OC2CC(C)(NCc3ccc(OCCc4ccc(F)cc4)cc3)C(O)C(C)O2)Oc2ccc(cc2Cl)C1O (stereo not drawn) [Compound 7]	97 ng/tail	0.5 µg/mL (≈ 0.275 µM)	1 µg/mL (≈ 0.549 µM)
CNC(CC(C)C)C(=O)NC1C(=O)NC(CC(N)=O)C(=O)NC2C(=O)NC3C(=O)NC(C(=O)NC(C(=O)O)c4cc(O)cc(O)c4-c4cc3ccc4O)C(OC3CC(C)(N)C(O)C(C)O3)c3ccc(c(Cl)c3)Oc3cc2cc(c3OC2OC(CO)C(O)C(O)C2OC2CC(C)(NCc3ccc(OCCc4ccc(Cl)cc4)cc3)C(O)C(C)O2)Oc2ccc(cc2Cl)C1O (stereo not drawn) [Compound 8]	150 ng/tail	0.5 µg/mL (≈ 0.272 µM)	1 µg/mL (≈ 0.544 µM)
CNC(CC(C)C)C(=O)NC1C(=O)NC(CC(N)=O)C(=O)NC2C(=O)NC3C(=O)NC(C(=O)NC(C(=O)O)c4cc(O)cc(O)c4-c4cc3ccc4O)C(OC3CC(C)(N)C(O)C(C)O3)c3ccc(c(Cl)c3)Oc3cc2cc(c3OC2OC(CO)C(O)C(O)C2OC2CC(C)(NCc3ccc(OCCc4ccc(Br)cc4)cc3)C(O)C(C)O2)Oc2ccc(cc2Cl)C1O (stereo not drawn) [Compound 9]	129 ng/tail	0.25 µg/mL (≈ 0.133 µM)	1 µg/mL (≈ 0.531 µM)
CNC(CC(C)C)C(=O)NC1C(=O)NC(CC(N)=O)C(=O)NC2C(=O)NC3C(=O)NC(C(=O)NC(C(=O)O)c4cc(O)cc(O)c4-c4cc3ccc4O)C(OC3CC(C)(N)C(O)C(C)O3)c3ccc(c(Cl)c3)Oc3cc2cc(c3OC2OC(CO)C(O)C(O)C2OC2CC(C)(NCc3ccc(OCCc4cccc(Br)c4)cc3)C(O)C(C)O2)Oc2ccc(cc2Cl)C1O (stereo not drawn) [Compound 10]	113 ng/tail	0.125 µg/mL (≈ 0.0664 µM)	1 µg/mL (≈ 0.531 µM)
CNC(CC(C)C)C(=O)NC1C(=O)NC(CC(N)=O)C(=O)NC2C(=O)NC3C(=O)NC(C(=O)NC(C(=O)O)c4cc(O)cc(O)c4-c4cc3ccc4O)C(OC3CC(C)(N)C(O)C(C)O3)c3ccc(c(Cl)c3)Oc3cc2cc(c3OC2OC(CO)C(O)C(O)C2OC2CC(C)(NCc3ccc(OCCc4ccc(C(F)(F)F)cc4)cc3)C(O)C(C)O2)Oc2ccc(cc2Cl)C1O (stereo not drawn) [Compound 11]	99 ng/tail	0.064 µg/mL (≈ 0.0342 µM)	0.5 µg/mL (≈ 0.267 µM)
CNC(CC(C)C)C(=O)NC1C(=O)NC(CC(N)=O)C(=O)NC2C(=O)NC3C(=O)NC(C(=O)NC(C(=O)O)c4cc(O)cc(O)c4-c4cc3ccc4O)C(OC3CC(C)(N)C(O)C(C)O3)c3ccc(c(Cl)c3)Oc3cc2cc(c3OC2OC(CO)C(O)C(O)C2OC2CC(C)(NCc3ccc(OCCc4ccc(OC)cc4)cc3)C(O)C(C)O2)Oc2ccc(cc2Cl)C1O (stereo not drawn) [Compound 12]	188 ng/tail	0.5 µg/mL (≈ 0.273 µM)	16 µg/mL (≈ 8.73 µM)
CNC(CC(C)C)C(=O)NC1C(=O)NC(CC(N)=O)C(=O)NC2C(=O)NC3C(=O)NC(C(=O)NC(C(=O)O)c4cc(O)cc(O)c4-c4cc3ccc4O)C(OC3CC(C)(N)C(O)C(C)O3)c3ccc(c(Cl)c3)Oc3cc2cc(c3OC2OC(CO)C(O)C(O)C2OC2CC(C)(NCc3ccc(OCCCc4ccc(Cl)cc4)cc3)C(O)C(C)O2)Oc2ccc(cc2Cl)C1O (stereo not drawn) [Compound 13]	164 ng/tail	0.5 µg/mL (≈ 0.27 µM)	2 µg/mL (≈ 1.08 µM)
CNC(CC(C)C)C(=O)NC1C(=O)NC(CC(N)=O)C(=O)NC2C(=O)NC3C(=O)NC(C(=O)NC(C(=O)O)c4cc(O)cc(O)c4-c4cc3ccc4O)C(OC3CC(C)(N)C(O)C(C)O3)c3ccc(c(Cl)c3)Oc3cc2cc(c3OC2OC(CO)C(O)C(O)C2OC2CC(C)(NCc3ccc(SCc4ccccc4)cc3)C(O)C(C)O2)Oc2ccc(cc2Cl)C1O (stereo not drawn) [Compound 14]	82 ng/tail	0.032 µg/mL (≈ 0.0177 µM)	8 µg/mL (≈ 4.43 µM)
CNC(CC(C)C)C(=O)NC1C(=O)NC(CC(N)=O)C(=O)NC2C(=O)NC3C(=O)NC(C(=O)NC(C(=O)O)c4cc(O)cc(O)c4-c4cc3ccc4O)C(OC3CC(C)(N)C(O)C(C)O3)c3ccc(c(Cl)c3)Oc3cc2cc(c3OC2OC(CO)C(O)C(O)C2OC2CC(C)(NCc3ccc(SCc4ccc(Cl)cc4)cc3)C(O)C(C)O2)Oc2ccc(cc2Cl)C1O (stereo not drawn) [Compound 15]	76 ng/tail	0.032 µg/mL (≈ 0.0174 µM)	1 µg/mL (≈ 0.544 µM)
CNC(CC(C)C)C(=O)NC1C(=O)NC(CC(N)=O)C(=O)NC2C(=O)NC3C(=O)NC(C(=O)NC(C(=O)O)c4cc(O)cc(O)c4-c4cc3ccc4O)C(OC3CC(C)(N)C(O)C(C)O3)c3ccc(c(Cl)c3)Oc3cc2cc(c3OC2OC(CO)C(O)C(O)C2OC2CC(C)(NCc3ccc(SCCc4ccc(Cl)cc4)cc3)C(O)C(C)O2)Oc2ccc(cc2Cl)C1O (stereo not drawn) [Compound 16]	72 ng/tail	0.032 µg/mL (≈ 0.0173 µM)	0.5 µg/mL (≈ 0.27 µM)
CNC(CC(C)C)C(=O)NC1C(=O)NC(CC(N)=O)C(=O)NC2C(=O)NC3C(=O)NC(C(=O)NC(C(=O)O)c4cc(O)cc(O)c4-c4cc3ccc4O)C(OC3CC(C)(N)C(O)C(C)O3)c3ccc(c(Cl)c3)Oc3cc2cc(c3OC2OC(CO)C(O)C(O)C2OC2CC(C)(NCc3ccc(NCc4ccccc4)cc3)C(O)C(C)O2)Oc2ccc(cc2Cl)C1O (stereo not drawn) [Compound 17]	139 ng/tail	0.5 µg/mL (≈ 0.28 µM)	1 µg/mL (≈ 0.559 µM)
CNC(CC(C)C)C(=O)NC1C(=O)NC(CC(N)=O)C(=O)NC2C(=O)NC3C(=O)NC(C(=O)NC(C(=O)O)c4cc(O)cc(O)c4-c4cc3ccc4O)C(OC3CC(C)(N)C(O)C(C)O3)c3ccc(c(Cl)c3)Oc3cc2cc(c3OC2OC(CO)C(O)C(O)C2OC2CC(C)(NCc3ccc(NCc4ccc(C)cc4)cc3)C(O)C(C)O2)Oc2ccc(cc2Cl)C1O (stereo not drawn) [Compound 18]	128 ng/tail	0.5 µg/mL (≈ 0.278 µM)	1 µg/mL (≈ 0.555 µM)
CNC(CC(C)C)C(=O)NC1C(=O)NC(CC(N)=O)C(=O)NC2C(=O)NC3C(=O)NC(C(=O)NC(C(=O)O)c4cc(O)cc(O)c4-c4cc3ccc4O)C(OC3CC(C)(N)C(O)C(C)O3)c3ccc(c(Cl)c3)Oc3cc2cc(c3OC2OC(CO)C(O)C(O)C2OC2CC(C)(NCc3ccc(NCc4ccc(Cl)cc4)cc3)C(O)C(C)O2)Oc2ccc(cc2Cl)C1O (stereo not drawn) [Compound 19]	117 ng/tail	0.25 µg/mL (≈ 0.137 µM)	0.2 µg/mL (≈ 0.11 µM)
